# Results as given in patent US7169813B2, “4-oxo-fenretinide, administered alone and in combination with fenretinide, as preventive and therapeutic agent for cancer” (Fondazione IRCCS “Istituto Nazionale Dei Tumori”, priority 2004, dated 2007).
# Like-named read-outs stand apart in the source and are kept apart here.
# How the values were obtained:
# [1] = tested on: A2780; assay: Growth inhibition (sulforhodamine B assay), single agents and combination; assay type: cell-based; settings: Homo sapiens, read-out: 50% Inhibitory Concentrations (IC50) at 72 h
# Method: The following human ovarian carcinoma cell lines were tested: A2780 was obtained from Dr. R. F. Ozols (National Cancer Institute, Bethesda, Md., USA); IGROV-1 was obtained from Dr. J. Benard (Villejuif, France); OVCA432 was obtained from Dr. R. C. Knapp (Boston, Mass., USA); OAW42 and SKOV-3 were purchased from ATCC (Rockville, Md., USA). A2780/HPR, a 4-HPR— resistant ovarian carcinoma cell line, was obtained in our laboratory by continuous exposure of A2780 cells to increasing concentrations of 4-EPR as previously described (Appierto et al., Br. J. Cancer, 2001, 84:1528–1534; Prinetti et al., J. Biol. Chem., 2003, 278:5574–5583). Briefly, cells surviving 60 transplants in 4-HPR —containing medium (3 transplants at 1 μM, 11 transplants at 2 μM, 8 transplants at 3 μM, and 38 transplants at 5 μM) were cloned by limiting dilution. […]
# (§1) For the growth inhibition assays, cells were seeded at a density of 3500 cells per well in 96 cluster tissue culture plates, and treated 24 hr after seeding with different concentrations of 4-oxo-4-HPR or 4-HPR. […] The survival of treated cells was calculated for the various drug concentrations as percentage of the survival of control cells. […]
# Studies were performed to assess whether 4-oxo-4-HPR potentiates the tumor growth inhibitory effects of 4-HPR. […] The fractional survival (f) after 3 days of treatment was calculated for each experimental condition. […]
# [2] = tested on: A2780/HPR; settings: A2780/HPR clone versus A2780; cited from earlier work
# [3] = tested on: A2780; assay: Apoptosis induction (Cell Death Detection ELISA, DNA fragmentation); assay type: cell-based, human; settings: 5 μM, 24 hr
# Method: Although the mechanism of action of 4-HPR is not well understood, its tumor growth inhibitory effects have been attributed to apoptosis induction (Supino et al., Int. J. Cancer, 1996, 65:491–497). The apoptosis inducing effects of 4-oxo-4-HPR were compared with those of 4-HPR in the human ovarian carcinoma cell line A2780 and in its counterpart A2780/HPR, with induced resistance to 4-HPR. Apoptosis was evaluated by a Cell Death Detection ELISA Plus Assay Kit (Roche Diagnostic GmbH, Germany) according to the manufacturer's instructions. This assay quantitates the amount of cytoplasmic histone-associated DNA fragments which increases during apoptosis. Cells were seeded in 96-well cell culture plates and treated the day after with 5 μM 4-oxo-4-HPR or 4-HPR for 24 hr.
# [4] = tested on: A2780; assay: Growth inhibition (sulforhodamine B assay), single agents and combination; assay type: cell-based, human; settings: Homo sapiens, A2780, 72 h, read-out: 50% Inhibitory Concentrations (IC50) at 72 h
# Method: (§2) The following human ovarian carcinoma cell lines were tested: A2780 was obtained from Dr. R. F. Ozols (National Cancer Institute, Bethesda, Md., USA); IGROV-1 was obtained from Dr. J. Benard (Villejuif, France); OVCA432 was obtained from Dr. R. C. Knapp (Boston, Mass., USA); OAW42 and SKOV-3 were purchased from ATCC (Rockville, Md., USA). A2780/HPR, a 4-HPR— resistant ovarian carcinoma cell line, was obtained in our laboratory by continuous exposure of A2780 cells to increasing concentrations of 4-EPR as previously described (Appierto et al., Br. J. Cancer, 2001, 84:1528–1534; Prinetti et al., J. Biol. Chem., 2003, 278:5574–5583). Briefly, cells surviving 60 transplants in 4-HPR —containing medium (3 transplants at 1 μM, 11 transplants at 2 μM, 8 transplants at 3 μM, and 38 transplants at 5 μM) were cloned by limiting dilution. […] Therefore, A2780/HPR cells were continuously maintained in 5 μM 4-HPR and seeded without 4-HPR in all the experiments performed to test their sensitivity to 4-oxo-4-HPR.
# The following human breast tumor cell lines, obtained from Dr. R. Sutherland (Garvan Institute, Sydney, Australia) were tested: T-47D, BT-20 and MCF-7. The following human neuroblastoma cell lines, purchased from ATCC, were tested: SK-N-BE, SK-N-SH, SK-N-MC, and GI-LI-N. All cell lines were grown in monolayer, in medium containing 10% fetal bovine serum (Invitrogen) in 5% CO2 at 37° C. The medium for A2780, A2780/HPR, IGROV-1, OVCA432, SKOV-3, T-47D, BT-20, MCF-7, GI-LI-N and SK-N-BE cells was RPMI 1640 (Cambrex, Verviers, Belgium) and the medium for OAW42, SK-N-MC and SK-N-SH cells was EMEM (ATCC).
# For the growth inhibition assays, cells were seeded at a density of 3500 cells per well in 96 cluster tissue culture plates, and treated 24 hr after seeding with different concentrations of 4-oxo-4-HPR or 4-HPR. 4-oxo-4-HPR was dissolved in absolute ethanol and 4-HPR (obtained from Dr. J. A. Crowell —NCI Bethesda, Md., USA) was dissolved in Me2SO. […] Control cultures received the same amount of ethanol or Me2SO as the treated cultures. 72 hr after treatment cell number was estimated by using the sulforhodamine B assay according to Monks et al., (J. Natl. Cancer, 1991, 11: 757–766). The survival of treated cells was calculated for the various drug concentrations as percentage of the survival of control cells. The antiproliferative activity of 4-oxo-4-HPR and 4-HPR in each cell line, was tested in three separate experiments and the average values ±SD are reported in FIGS. 2, 3, and 4.
# The antiproliferative effect of the combination of the two drugs, administered at one single dose, was also tested in other ovarian carcinoma cell lines and in breast tumor cell lines. The type of interaction between 4-HPR and 4-oxo-4-HPR was assessed by the method of Drevinko et al., as described in Cancer Biochem. Biophys., 1976, 1:187–195. For this evaluation the drugs were assumed to provide independent effects. The combination index (CI) was calculated as follows: survival fraction (SF) of the combination of 4-HPR+4-oxo-4-HPR divided by (SF 4-HPR×SF 4-oxo-4-HPR). The results for CI are defined as follows: CI=1 indicates an additive effect, CI<1 indicates a supra-additive effect and CI>1 indicates a sub-additive effect.
# [5] = tested on: ovarian tumor cell lines; assay: Growth inhibition, ovarian tumor cell lines (FIG. 2); assay type: cell-based, human; settings: all tested ovarian tumor cell lines; 72 hr
# Method: as §2, with “4-oxo-4-HPR. […]” for “4-oxo-4-HPR.”
# as §1
Structure (SMILES),"IC50 ([1]; A2780, 72 h, calculated from graphs) [nM]",resistance of A2780/HPR to 4-HPR [2] [fold],"IC50 ([1]; A2780, 72 h) [nM]","induction of apoptosis (DNA fragmentation, fold versus control cells) [3]",IC50 [4] [nM],"reducing tumor cell survival (FIG. 2), compared with 4-HPR, in words [5]"
"CC1=C(/C=C/C(C)=C/C=C/C(C)=C/C(=O)Nc2ccc(O)cc2)C(C)(C)CCC1 [4-HPR, N-(4-hydroxyphenyl)retinamide, reference compound]",1500,10,,,,
"CC1=C(/C=C/C(C)=C/C=C/C(C)=C/C(=O)Nc2ccc(O)cc2)C(C)(C)CCC1=O [4-oxo-4-HPR, 4-oxo-N-(4-hydroxyphenyl)retinamide]",,,600,higher than that of 4-HPR,500,more effective than 4-HPR
